Values of other authors, collected in patent publication US7741370B2, “Double salts of (−)-hydroxycitric acid and a process for preparing the same” (Laila Impex, priority 2004, dated 2010).

Experiments:
[1] = free acid form, forming a lactone; liquid form unstable during storage
[2] = prior-art salt (US 5,783,603), statement in words

stability [1] | hygroscopicity [2] | Compound
unstable | – | O=C(O)CC(O)(C(=O)O)C(O)C(=O)O (single isomer, unassigned; (-)) [(−)-hydroxycitric acid]
– | hygroscopic | potassium salt of HCA
